Measurements: PubChem BioAssay (NCI)
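Values below derive from 48-hour exposures of cells grown in 96-well plates, with endpoints linearly interpolated between the two concentrations bracketing the appropriate inhibition level. The concentration for full growth arrest is given as TGI.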

How the values were obtained:
Assay in all cases: DTP human tumour cell line panel, 48 h
[1] = system: COLO 205 colon
[2] = system: LOX IMVI melanoma
[3] = system: TK-10 renal
[4] = system: SW-620 colon
[5] = system: SN12C renal
[6] = system: SK-OV-3 ovarian
[7] = system: MOLT-4 leukemia
[8] = system: SNB-19 CNS
[9] = system: DU-145 prostate
[10] = system: OVCAR-4 ovarian
[11] = system: HCC-2998 colon
[12] = system: OVCAR-3 ovarian
[13] = system: CAKI-1 renal
[14] = system: PC-3 prostate
[15] = system: NCI-H460 lung
[16] = system: MDA-N
[17] = system: M14 melanoma
[18] = system: NCI-H23 lung
[19] = system: MALME-3M melanoma
[20] = system: SF-539 CNS
[21] = system: HL-60(TB) leukemia
[22] = system: UACC-257 melanoma
[23] = system: XF 498 CNS
[24] = system: SK-MEL-2 melanoma
[25] = system: ACHN renal
[26] = system: BT-549 breast
[27] = system: NCI/ADR-RES ovarian
[28] = system: NCI-H522 lung
[29] = system: DMS 273 small cell lung
[30] = system: A549 NSCLC
[31] = system: U251 CNS
[32] = system: MDA-MB-231 breast
[33] = system: SNB-75 CNS
[34] = system: RPMI-8226 leukemia
[35] = system: SK-MEL-28 melanoma
[36] = system: HOP-18 NSCLC
[37] = system: SR leukemia
[38] = system: OVCAR-8 ovarian
[39] = system: HCT-15 colon
[40] = system: HT29 colon
[41] = system: A498 renal
[42] = system: KM20L2 colon
[43] = system: SK-MEL-5 melanoma
[44] = system: HOP-62 NSCLC
[45] = system: HCT-116 colon
[46] = system: DMS 114 small cell lung
[47] = system: MCF7 breast
[48] = system: OVCAR-5 ovarian
[49] = system: SNB-78 CNS
[50] = system: K-562 leukemia
[51] = system: IGROV1 ovarian
[52] = system: 786-0 renal
[53] = system: MDA-MB-435
[54] = system: HS 578T breast
[55] = system: T-47D breast
[56] = system: DLD-1 colon
[57] = system: CCRF-CEM leukemia
[58] = system: KM12 colon
[59] = system: SF-295 CNS
[60] = system: UACC-62 melanoma
[61] = system: RXF 393 renal
[62] = system: EKVX NSCLC
[63] = system: UO-31 renal
[64] = system: LXFL 529 NSCLC
[65] = system: SF-268 CNS
[66] = system: HOP-92 NSCLC
[67] = system: M19-MEL melanoma
[68] = system: NCI-H226 lung

Structure (SMILES): O=c1cc(-c2ccccc2)oc2ccc(Cl)cc12
- TGI [1]: > 85.7 µM
- TGI [2]: > 80.1 µM
- TGI [3]: 92.7 µM
- TGI [4]: > 100 µM
- TGI [5]: > 100 µM
- TGI [6]: > 100 µM
- TGI [7]: 98.7 µM
- TGI [8]: > 81.7 µM
- TGI [9]: > 100 µM
- TGI [10]: > 96.3 µM
- TGI [11]: > 100 µM
- TGI [12]: > 100 µM
- TGI [13]: > 90.4 µM
- TGI [14]: > 80.3 µM
- TGI [15]: > 100 µM
- TGI [16]: > 61.1 µM
- TGI [17]: > 100 µM
- TGI [18]: > 100 µM
- TGI [19]: > 82.4 µM
- TGI [20]: > 97.4 µM
- TGI [21]: > 46.4 µM
- TGI [22]: > 74.6 µM
- TGI [23]: > 90.5 µM
- TGI [24]: > 100 µM
- TGI [25]: > 90.6 µM
- TGI [26]: > 100 µM
- TGI [27]: > 100 µM
- TGI [28]: > 100 µM
- TGI [29]: > 100 µM
- TGI [30]: > 100 µM
- TGI [31]: > 91.7 µM
- TGI [32]: > 31.6 µM
- TGI [33]: > 85.7 µM
- TGI [34]: > 100 µM
- TGI [35]: > 78.4 µM
- TGI [36]: > 100 µM
- TGI [37]: > 46.4 µM
- TGI [38]: > 100 µM
- TGI [39]: > 100 µM
- TGI [40]: > 100 µM
- TGI [41]: 98 µM
- TGI [42]: > 100 µM
- TGI [43]: > 100 µM
- TGI [44]: > 85.8 µM
- TGI [45]: > 100 µM
- TGI [46]: > 100 µM
- TGI [47]: > 100 µM
- TGI [48]: > 100 µM
- TGI [49]: > 100 µM
- TGI [50]: > 96.2 µM
- TGI [51]: > 100 µM
- TGI [52]: > 87.8 µM
- TGI [53]: > 60.1 µM
- TGI [54]: > 91.8 µM
- TGI [55]: > 100 µM
- TGI [56]: > 100 µM
- TGI [57]: > 100 µM
- TGI [58]: > 80.6 µM
- TGI [59]: 99.1 µM
- TGI [60]: > 79.4 µM
- TGI [61]: > 91.2 µM
- TGI [62]: > 97 µM
- TGI [63]: > 88.8 µM
- TGI [64]: > 100 µM
- TGI [65]: > 85.3 µM
- TGI [66]: 73.2 µM
- TGI [67]: > 100 µM
- TGI [68]: > 100 µM

Structure (SMILES): OC12CCC3(OC4CCCCO4)c4ccccc4C3C1c1ccccc12 (configuration not stated)
- TGI [1]: > 100 µM
- TGI [2]: > 100 µM
- TGI [3]: > 100 µM
- TGI [4]: > 100 µM
- TGI [5]: > 100 µM
- TGI [6]: > 100 µM
- TGI [7]: > 100 µM
- TGI [8]: > 100 µM
- TGI [10]: > 100 µM
- TGI [15]: > 100 µM
- TGI [17]: > 100 µM
- TGI [18]: > 100 µM
- TGI [19]: > 100 µM
- TGI [21]: > 100 µM
- TGI [22]: > 100 µM
- TGI [23]: > 100 µM
- TGI [24]: > 100 µM
- TGI [25]: > 100 µM
- TGI [28]: > 100 µM
- TGI [29]: > 100 µM
- TGI [30]: > 100 µM
- TGI [31]: > 100 µM
- TGI [33]: > 100 µM
- TGI [34]: > 100 µM
- TGI [35]: > 100 µM
- TGI [36]: > 100 µM
- TGI [37]: > 100 µM
- TGI [38]: > 100 µM
- TGI [39]: > 100 µM
- TGI [40]: > 100 µM
- TGI [42]: > 100 µM
- TGI [43]: > 100 µM
- TGI [44]: > 100 µM
- TGI [45]: > 100 µM
- TGI [46]: > 100 µM
- TGI [49]: > 100 µM
- TGI [50]: > 100 µM
- TGI [52]: > 100 µM
- TGI [57]: > 100 µM
- TGI [58]: > 100 µM
- TGI [59]: > 100 µM
- TGI [60]: > 100 µM
- TGI [61]: > 100 µM
- TGI [62]: > 100 µM
- TGI [63]: > 100 µM
- TGI [64]: > 100 µM
- TGI [65]: > 100 µM
- TGI [67]: > 100 µM
- TGI [68]: > 100 µM
